Measurements: patent US9289388B2, “Methods and compositions for delivery of medicaments to the lungs” (Paka Pulmonary Pharmaceuticals, Inc., priority 2008, dated 2016)

What was measured:
[1] = tested on: mice with HNE induced emphysema; assay: HNE induced emphysema, intratracheal delivery, lung histology and mean linear intercept after four weeks; type: in vivo
Experimental: A total of 42 animals were used in this study. Anesthesized mice received 0.1 ml of solution delivered by intratracheal instillation as described above in Example 4. Animals were divided into the following treatment groups: four animals received saline only; ten animals received HNE only; four animals received the Zeneca inhibitor (target 2) only; eight animals received HNE mixed with the Zeneca inhibitor (target 2); eight animals received Zeneca inhibitor linked to a lung surfactant peptide (target C) only; and eight animals received HNE mixed with Zeneca inhibitor linked to a lung surfactant peptide (target C). Animals receiving HNE were instilled with 40 micrograms HNE. Target 2 (Zeneca inhibitor) was administered in a 70-fold molar excess relative to HNE and Target C (Zeneca inhibitor linked to a lung surfactant peptide) was administered in a 100 fold molar excess relative to HNE as described in Example 4.
All animals were observed a four week period prior to sacrifice following IRB approved protocols and the lungs from each animal were removed for sectioning. The Hilar and central region was sectioned from the left lung and the caudal region was sectioned from the right lung of each animal. Lung sections were scored using blind-scoring by an expert as “E” for emphysema and “N” for no emphysema.
The distance between adjacent alveolar walls was also measured to quantitate the degree of lung destruction for each treatment group. Lung sections obtained from each animal were analyzed under a microscope (which is connected to a computer) and lines were drawn over the lung sections between adjacent alveolar walls. The distance along the lines was calculated to determine the average distance or mean linear intercept (MLI) between adjacent alveolar walls. An increase in the average distance between adjacent alveolar walls corresponds to an increase in lung destruction.

[2] = tested on: mice exposed to HNE; assay: Bronchoalveolar lavage of the lungs following HNE exposure (lung blood cell level); type: in vivo
Experimental: A total of 14 animals were used in this study. Anesthetized mice received 0.1 ml of solution delivered by a blunt tip catheter to the opening of the trachea and the animals allowed to aspirate the solution into their lungs (this method is also referred to as intratracheal instillation). All animals were exposed to the treatment for 2 hours and re-anesthetized. Bronchoalveolar lavage of the lungs was performed as described below. […] Target 2 (a potent HNE inhibitor developed by Zeneca in the early 1990s) when given with the HNE, reduced the average blood level in the lungs by 34% to 0.035 grams. Target C (the Zeneca molecule covalently attached to the N-terminus of the first 25 residues of the human surfactant B peptide) when given with the HNE reduced the average blood level in the lungs by 87% to 0.007 grams.
A set of animals was used to determine the optimal concentration of HNE for the study. […] The amount of HNE was reduced to 40 micrograms to maintain a maximal detrimental but survivable effect. The animals exposed to 40 micrograms of HNE were able to survive long enough to perform the complete study. All animals remaining in the complete study were exposed to 40 micrograms of HNE.
(§1) Target 2 (the Zeneca molecule) was given in a 70-fold molar excess relative to HNE. In the kinetic studies, Target 2 has 2 nM affinity. […] Accordingly, the Target C was given to the animals in a 100 fold molar excess relative to HNE in these studies.
Bronchio-Alveolar lavage (BAL) is performed by 1) anesthetizing the animals; 2) performing a tracheotomy on the animals and cutting open the chest and spreading the ribs to enable full lung expansion; 3) pressurizing 1 ml of PBS buffer solution into the lungs through the tracheotomy catheter; 4) sucking the solution out of the lungs; 5) centrifuging the recovered solution to separate the red blood cell fraction from the liquid fraction; and 6) weighing the red blood cell fraction.

[3] = target: T1, HNE (Homo sapiens, UniProt P08246); assay: kinetic studies of HNE inhibition; type: biochemical
T1 sequence (P08246 30-267): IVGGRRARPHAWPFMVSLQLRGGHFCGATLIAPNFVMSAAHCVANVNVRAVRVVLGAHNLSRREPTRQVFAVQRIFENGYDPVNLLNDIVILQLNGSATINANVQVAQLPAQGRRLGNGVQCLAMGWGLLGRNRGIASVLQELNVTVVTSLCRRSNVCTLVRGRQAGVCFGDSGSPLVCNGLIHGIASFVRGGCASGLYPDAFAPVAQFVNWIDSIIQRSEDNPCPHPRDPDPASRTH
Experimental: as §1

[4] = HNE mixed with compound, four weeks, blind scoring
[5] = given with 40 micrograms HNE by intratracheal instillation, 2 hours, weight of BAL red blood cell fraction

For Target C (FPIPLPYCWLCRALIKRIQAMIPKG), the “MLI (mean linear intercept between adjacent alveolar walls)” value ([1]; HNE (40 micrograms) mixed with compound, intratracheal, four weeks, saline only 44.40, HNE only 51.45) was 45.82 μm, the “effect on HNE induced emphysema by MLI” value ([1]; HNE + compound, compared to HNE only and saline only) was “strongly inhibited HNE induced emphysema” and the “effect on HNE induced emphysema, lung histology sections” value [1, 4] was “strongly inhibited HNE induced emphysema”. The “lung histology sections compared with animals receiving saline only” value [1, 4] was “could not be distinguished in blind scoring”, the “Lung Blood Cell Level, Group mean” value [2, 5] was 0.007 g and the “Lung Blood Cell Level, Mouse group 1” value [2, 5] was 0 g. For the same substance, the “Lung Blood Cell Level, Mouse group 2” value [2, 5] was 0.007 g, the “Lung Blood Cell Level, Mouse group 3” value [2, 5] was 0.014 g and the “average blood level in the lungs” value ([2]; given with the HNE, 2 hours, HNE alone 0.053 grams) was 0.007 grams. The “reduction of the average blood level in the lungs” value ([2]; given with the HNE, versus HNE alone) was 87%, the “loss of potency as compared to Target 2” value [3] was “loses approximately two orders of magnitude of potency” and the Ki ([3]; read-out: affinity for HNE) was roughly 0.2 µM.
